# In patent US7282507B2, “Indole derivatives as selective androgen receptor modulators (SARMS)” (Janssen Pharmaceutica N.V., priority 2004, dated 2007):
# “And” between values parts separate entries of the source, which are not always exact repeats. Equal entries are not always repeated. Where two headings read alike, the source gives them in different places.
# Key:
# [1] = biological target: T1, androgen receptor (rat ventral prostate cytosol) (Rattus norvegicus, UniProt P15207); assay: Androgen Receptor Binding Using Rat Ventral Prostate Cytosol; conditions: for inhibition at 1 µM: read-out: % Inhibition, Androgen Receptor Binding (Rat Cytosol); for % Inhibition, Androgen Receptor Binding (Rat Cytosol): 1 µM
# T1 construct: from tissue; host or cells: ventral prostate cytosol of castrated male Sprague Dawley or Wistar rats
# T1 sequence (P15207 1-902): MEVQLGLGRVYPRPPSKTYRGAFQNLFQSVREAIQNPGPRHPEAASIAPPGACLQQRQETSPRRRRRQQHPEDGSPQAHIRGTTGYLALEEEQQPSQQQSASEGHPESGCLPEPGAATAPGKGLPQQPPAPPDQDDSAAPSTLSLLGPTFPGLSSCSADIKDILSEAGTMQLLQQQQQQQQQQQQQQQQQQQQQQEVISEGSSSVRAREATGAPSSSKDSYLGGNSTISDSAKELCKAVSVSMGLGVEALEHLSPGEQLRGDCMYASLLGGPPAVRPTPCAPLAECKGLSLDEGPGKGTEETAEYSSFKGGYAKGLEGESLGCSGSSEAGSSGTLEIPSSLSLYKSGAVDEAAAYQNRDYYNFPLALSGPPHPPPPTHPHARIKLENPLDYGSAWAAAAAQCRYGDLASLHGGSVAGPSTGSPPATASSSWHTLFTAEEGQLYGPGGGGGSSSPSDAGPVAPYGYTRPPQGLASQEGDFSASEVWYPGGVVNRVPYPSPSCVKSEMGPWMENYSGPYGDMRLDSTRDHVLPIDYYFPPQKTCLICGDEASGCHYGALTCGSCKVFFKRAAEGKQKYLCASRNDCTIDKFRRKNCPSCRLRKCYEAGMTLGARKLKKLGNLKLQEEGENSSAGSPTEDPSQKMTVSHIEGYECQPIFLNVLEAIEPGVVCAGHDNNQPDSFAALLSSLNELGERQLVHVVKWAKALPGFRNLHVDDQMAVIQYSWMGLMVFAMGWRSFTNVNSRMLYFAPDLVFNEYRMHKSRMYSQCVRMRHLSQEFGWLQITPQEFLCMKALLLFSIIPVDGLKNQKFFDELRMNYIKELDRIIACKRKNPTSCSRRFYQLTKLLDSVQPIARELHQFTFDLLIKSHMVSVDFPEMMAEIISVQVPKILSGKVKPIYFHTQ
# Method in brief: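 Cytosol from castrated rat ventral prostate was incubated overnight at 4°C with 0.5 nM [3H] tracer and compound in TED buffer (10 mM Tris-HCl pH 7.4, molybdate, EDTA, DTT, glycerol).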
# [2] = biological target: T2, androgen receptor LBD (Panvera) (Rattus norvegicus, UniProt P15207); assay: Androgen Receptor Filtration Binding Assay (PANVERA)
# T2 construct: 5 pmol androgen receptor LBD (Panvera); purchased Panvera
# T2 sequence (P15207 651-882 limits assumed): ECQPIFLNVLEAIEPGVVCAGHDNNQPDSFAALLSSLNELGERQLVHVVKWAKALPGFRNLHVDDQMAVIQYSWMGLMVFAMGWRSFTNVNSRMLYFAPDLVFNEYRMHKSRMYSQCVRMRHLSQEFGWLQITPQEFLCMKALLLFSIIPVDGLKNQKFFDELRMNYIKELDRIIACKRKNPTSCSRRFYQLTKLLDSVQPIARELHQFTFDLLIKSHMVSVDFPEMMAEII
# Experimental: The assay was run on a 96 well plate with each well filled with a total reaction volume 150 μL, of a solution containing 5 pmol androgen receptor LBD (Panvera) or 30 μL of freshly prepared rat cytosol, 0.5 nM [^3H] […] (TED buffer contains 10 mM Tris.HCl pH 7.4, 1 mM sodium molybdate, 1.5 mM EDTA, 1 mM DTT and 10% (v/v) glycerol.)
# On day one, the solution containing receptor, tracer and TED buffer was distributed into a 96 well plate. Diluted test compound or control vehicle was then added to individual wells and the plate incubated at 4° C. overnight.
# On day two, to each well was then added 20 μL human γ-globulin (ICN 823102), prepared at 25 mg/ml in TE pH 8.0, and 55 μL 40% polyethylene glycol 8000 (J T Baker U222-08), prepared in TE pH 8.0. The plate was incubated at 4° C. for 60 minutes. During incubation, the harvester was rinsed with 10% PEG 8000, prepared in TE pH 8.0, and a GF/C Unifilter-96 was pre-wet with 10% PEG. The binding reaction was filtered, the retentate was washed three times with 10% PEG and dried under vacuum for a couple of minutes, then dried at 50° C. for 5 min and the plate was bottom sealed. Next, 25 μL of Microscint-20 (Packard) was added to the filter wells and the plate was top sealed. The plate wells were then counted on a TopCount (Packard).
# Counts per well were measured and IC50s determined by linear regression.
# [3] = IC50 (nM), Androgen Receptor Binding (Panvera)
# [4] = read-out: IC50 (nM), Androgen Receptor Binding (Panvera)
# [5] = read-out: IC50 (nM), Androgen Receptor Binding (Rat Cytosol)
# [6] = [3H] R1881 tracer 0.5 nM, read-out: IC50 (nM), Androgen Receptor Binding (Panvera)
Compound,inhibition at 1 µM ([1]; Concentration 1000 nM),"IC50 [2, 6]",other results
CC(O)(COC(=O)c1ccccc1Cl)c1cc2cc([N+](=O)[O-])c(C(F)(F)F)cc2[nH]1 (stereo not shown) [Compound 54],–,–,"inhibition at 1 µM [1]: 5.5%; IC50 [2, 3]: 220 nM; IC50 [2, 4]: 465 nM"
CC(O)(COC(=O)c1ccc(Cl)cc1)c1cc2cc([N+](=O)[O-])c(C(F)(F)F)cc2[nH]1 (stereo not shown) [Compound 55],5.5%,715 nM and 635 nM,"IC50 [1, 5]: 180 nM"
CC(O)(COC(=O)c1ccc(Cl)c(Cl)c1)c1cc2cc([N+](=O)[O-])c(C(F)(F)F)cc2[nH]1 (stereo not shown) [Compound 56],38.5%,485 nM and 610 nM,–
CC(O)(COC(=O)c1cccc(Cl)c1)c1cc2cc([N+](=O)[O-])c(C(F)(F)F)cc2[nH]1 (stereo not shown) [Compound 58],79.5%,–,"IC50 [2, 4]: 455 nM"
CC(O)(COC(=O)c1ccccc1C(F)(F)F)c1cc2cc(N)c(C(F)(F)F)cc2[nH]1 (stereo not shown) [Compound 59],–,–,"IC50 [1]: 220 nM; inhibition at 1 µM [1]: 67.5%; IC50 [2, 4]: 4100 nM"
CC(O)(COC(=O)c1ccccc1C(F)(F)F)c1cc2cc(NC(=O)C(F)(F)F)c(C(F)(F)F)cc2[nH]1 (stereo not shown) [Compound 60],44.5%,6750 nM,"IC50 [1, 5]: > 10000 nM"
CC(O)(COC(=O)c1ccccc1)c1cc2cc(Cl)c(C(F)(F)F)cc2[nH]1 (stereo not shown) [Compound 61],73%,440 nM,–
CC(O)(COC(=O)c1ccc([N+](=O)[O-])cc1)c1cc2cc([N+](=O)[O-])c(C(F)(F)F)cc2[nH]1 (stereo not shown) [Compound 63],47.5%,1550 nM,–
CC(O)(COC(=O)c1ccccc1)c1cc2cc([N+](=O)[O-])c(C(F)(F)F)cc2[nH]1 (stereo not shown) [Compound 64],61.5%,815 nM,–
COc1ccc(C(=O)OCC(C)(O)c2cc3cc([N+](=O)[O-])c(C(F)(F)F)cc3[nH]2)cc1 (stereo not shown) [Compound 65],47.5%,945 nM,–
CN(C)c1ccc(C(=O)OCC(C)(O)c2cc3cc([N+](=O)[O-])c(C(F)(F)F)cc3[nH]2)cc1 (stereo not shown) [Compound 67],25.5%,3000 nM,–
CC(O)(COC(=O)c1ccccn1)c1cc2cc([N+](=O)[O-])c(C(F)(F)F)cc2[nH]1 (stereo not shown) [Compound 68],36%,19000 nM,–
Cc1ccc(C(=O)OCC(C)(O)c2cc3cc([N+](=O)[O-])c(C(F)(F)F)cc3[nH]2)cc1 (stereo not shown) [Compound 69],31%,1200 nM,–
CC(O)(COC(=O)c1ccccc1)c1cc2cc(C#N)c(C(F)(F)F)cc2[nH]1 (stereo not shown) [Compound 75],–,–,"inhibition at 1 µM [1]: 13.2%; IC50 [2, 3]: 9100 nM"
CC(O)(COC(=O)c1ccc(Cl)cc1)c1cc2cc(C#N)c(C(F)(F)F)cc2[nH]1 (stereo not shown) [Compound 76],-30.5%,1240 nM,–
CC(O)(COC(=O)c1ccc(F)cc1)c1cc2cc(C#N)c(C(F)(F)F)cc2[nH]1 (stereo not shown) [Compound 77],-9.25%,1110 nM,–
CC(O)(COC(=O)c1ccc(Cl)c(Cl)c1)c1cc2cc(C#N)c(C(F)(F)F)cc2[nH]1 (stereo not shown) [Compound 78],16.6%,3560 nM,–
CC(O)(COC(=O)c1cccnc1)c1cc2cc(C#N)c(C(F)(F)F)cc2[nH]1 (stereo not shown) [Compound 79],48.5%,> 9500 nM,–
CC(C)(C)c1ccc(C(=O)OCC(C)(O)c2cc3cc([N+](=O)[O-])c(C(F)(F)F)cc3[nH]2)cc1 (stereo not shown) [Compound 80],-24.9%,6400 nM,–
COC(=O)c1ccc2c(c1)cc(C(C)(O)CSc1ccccc1)n2S(C)(=O)=O (stereo not shown) [Compound 81],5.2%,15000 nM,–

Compound,inhibition at 1 µM ([1]; Concentration 1000 nM),"IC50 [2, 6]",other results
CC(O)(CSc1ccc(Cl)cc1)c1cc2cc(Cl)c(C(F)(F)F)cc2[nH]1 (stereo not shown) [Compound 82],69.8%,185 nM and 200 nM,"% Inhibition, Androgen Receptor Binding (Rat Cytosol) ([1]; Concentration 1000 nM): 83%; IC50 [1, 5]: 640 nM"
CC(O)(CSc1ccc(F)cc1)c1cc2cc(Cl)c(C(F)(F)F)cc2[nH]1 (stereo not shown) [Compound 83],69%,160 nM and 545 nM,"IC50 [1, 5]: 120 nM"
CC(O)(CSc1ccccc1Cl)c1cc2cc(Cl)c(C(F)(F)F)cc2[nH]1 (stereo not shown) [Compound 84],86%,180 nM,"IC50 [1, 5]: 240 nM"
CC(O)(CSc1ccc(Cl)c(Cl)c1)c1cc2cc(Cl)c(C(F)(F)F)cc2n1S(C)(=O)=O (stereo not shown) [Compound 86],72.5%,1250 nM,"IC50 [1, 5]: 240 nM"
CC(O)(CSc1ccc(Cl)c(Cl)c1)c1cc2cc([N+](=O)[O-])c(C(F)(F)F)cc2[nH]1 (stereo not shown) [Compound 87],–,350 nM and 1650 nM,"% Inhibition, Androgen Receptor Binding (Rat Cytosol) ([1]; Concentration 1000 nM): 85% and 61.5%; IC50 [1, 5]: 120 nM"
CC(O)(CSc1ccc(Cl)cc1)c1cc2ccccc2n1S(C)(=O)=O (stereo not shown) [Compound 88],-17.4%,5150 nM,–
CC(O)(CSc1ccccc1)c1cc2ccccc2n1S(C)(=O)=O (stereo not shown) [Compound 90],-2.5%,> 9000 nM,–
CC(O)(CSc1ccc(Cl)c(Cl)c1)c1cc2cc([N+](=O)[O-])c(C(F)(F)F)cc2n1S(C)(=O)=O (stereo not shown) [Compound 91],36%,1280 nM,–
CC(O)(CSC1CCCCC1)c1cc2cc(C#N)c(C(F)(F)F)cc2[nH]1 (stereo not shown) [Compound 92],14.7%,37000 nM,–
COC(=O)c1ccc2c(c1)cc(C(C)(O)CSC1CCCCC1)n2S(C)(=O)=O (stereo not shown) [Compound 93],35%,23000 nM,–
COC(=O)c1ccc2[nH]c(C(C)(O)CSC3CCCCC3)cc2c1 (stereo not shown) [Compound 94],21.8%,15000 nM,–
CC(O)(CSc1ccccc1)c1cc2cc(C#N)c(C(F)(F)F)cc2[nH]1 (stereo not shown) [Compound 95],56.5%,3000 nM,–
CC(O)(CSc1ccc(Cl)cc1)c1cc2cc(C#N)c(C(F)(F)F)cc2[nH]1 (stereo not shown) [Compound 96],–,–,"% Inhibition, Androgen Receptor Binding (Rat Cytosol) [1]: 59%; inhibition at 1 µM [1]: 74%; IC50 [2, 3]: 820 nM; IC50 [2, 4]: 1710 nM"
COC(=O)c1ccc2[nH]c(C(C)(O)CSc3ccc(Cl)cc3)cc2c1 (stereo not shown) [Compound 97],25%,7400 nM,–
COC(=O)c1ccc2c(c1)cc(C(C)(O)CSc1ccc(F)cc1)n2S(C)(=O)=O (stereo not shown) [Compound 98],-31%,8500 nM,–
CC(O)(CSc1ccc(F)cc1)c1cc2cc(Cl)ccc2n1S(C)(=O)=O (stereo not shown) [Compound 99],8.5%,5750 nM,–
CC(O)(CSc1ccc(F)cc1)c1cc2cc(Cl)ccc2[nH]1 (stereo not shown) [Compound 100],80%,1160 nM,–
CC(O)(CSc1ccc(Cl)cc1)c1cc2cc(Cl)ccc2n1S(C)(=O)=O (stereo not shown) [Compound 101],-24.9%,3850 nM,–
CC(O)(CSc1ccc(Cl)cc1)c1cc2cc(Cl)ccc2[nH]1 (stereo not shown) [Compound 102],73.5%,665 nM,"IC50 [1, 5]: 140 nM"
CC(O)(CSc1ccccc1)c1cc2cc(Cl)c(C(F)(F)F)cc2[nH]1 (stereo not shown) [Compound 106],63%,225 nM,"IC50 [1, 5]: 300 nM"
